Assay results as given in patent US12459952B2, “TREM2 modulators” (Muna Therapeutics ApS, priority 2024, dated 2025).

Molecular target: T1, Human TREM2 (Homo sapiens, UniProt Q9NZC2)
T1 construct: expressed in transfected cells
Experiment: Human TREM2 cellular phospho-Syk AlphaLISA assay in HEK293/DAP12+TREM2 stable cell line
Type: cell-based
Details: HEK293/DAP12+TREM2 cells; for Emax: maximal response relative to the maximal response of the reference agonist, phospho-Syk AlphaLISA; for EC50: phospho-Syk (Tyr525/526) AlphaLISA signal, 30 min incubation
Source text: Human TREM2, in vitro Measurement of Triggering Receptor Expressed on Myeloid Cells 2 activity using cellular phosphorylation of Spleen Tyrosine Kinase (“Syk”) Assay
HEK-293 cells were co-transfected with separate plasmids encoding TREM2 and DAP12 to generate a stable cell line. After antibiotic selection, functional clone pool analysis and two successive limiting dilutions, the final clone “HEK293/DAP12+TREM2” underwent a qPCR analysis and a pharmacological validation.
TREM2 signaling through DAP12 was monitored in the HEK293/DAP12+TREM2 stable cell line by measuring the phosphorylation levels of the Syk kinase using the commercially available AlphaLISA SureFire Ultra p-SYK (Tyr525/526) Assay Kit (PerkinElmer #ALSU-PSYK), based on the Perkin Elmer AlphaScreen/AlphaLISA technology.
Compounds are transferred to the test plate and tested in full dose response, 8 concentrations in quadruplicate data points. Compound serial dilutions were performed at Cybi-Felix instrument in 100% DMSO and the dose response curves were assembled in automated fashion in 384MPT at Hamilton STARlet instrument. All the stock solutions were prepared at 20 mM in 100% DMSO. For compounds testing, the starting concentration was 100 μM, dilution steps 1:6. A different concentration's range was adapted for compound's activity based on the preliminary results. Finally, a 384MPT reformatted for all compounds at 8 concentrations, quadruplicates, was used as “mother to child” process with a CyBi@-Well dispenser in which 1 μL of each compound was moved into a destination plate pre-filled with […] of EMEM cell culture medium (BIOWHITTAKER_cat.BE12-125F), thus obtaining 3× concentrated compounds working solution. In columns 1-2 and 23-24 the control wells were added. In particular, dose response curves of a reference control agonist were included in column 1 and 24 as reference control agonist (Reference control agonists used include Human TREM2 polyclonal Antibody AF1828: R&D Systems; Human TREM2 monoclonal Antibody MAB1828: R&D Systems). The dose response curves were tested starting at 30 μM, dilution step 1:6. Both “source” compound plate and “destination” compound plate were barcoded and a relationship between the two plates was thus generated.
HEK293/DAP12+TREM2 cells were cultured in EMEM medium supplemented with IX Penicillin/Streptomycin (BIOWHITTAKER_cat.DE17-602E), ULTRAGLUTAMINE I 200 mM, 10% Fetal Bovine Serum plus antibiotics referred to as “HEK293 Culture Medium”. The day before the experiment, cells were detached by gentle wash with DPBS, followed by 5 min incubation at 37° C. with Trypsin solution. Cells were then diluted in HEK293 Culture Medium without antibiotics, counted and seeded into 384-well poly-D-Lysine coated microplates black/clear bottom (GREINER 781946) at a density of 10,000 cells/well in 25 μL/well by the use of a MATRIX WellMate dispenser. Plates were placed into a humidified cell culture incubator at 37° C. with 5% CO2 until the experimental day. 20-24 hours after seeding mature medium was removed and replaced with 10 μL/well of EMEM cell medium supplemented with 0.1% Pluronic F-68 non-ionic surfactant (Thermofisher, 24040032), referred to as “Assay Buffer”, using the CyBi@-Well instrument. Then 5 μL/well of Assay Buffer containing 3× concentrated test compounds or the reference control agonist (in 0.5% final DMSO concentration) were added to the cells with the CyBi@-Well instrument. Cell plates were incubated for 30 min into a humidified cell culture incubator at 37° C. with 5% CO2, then the medium was removed by manually discard. 20 μL/well of lysis buffer were dispensed using the CyBi@-Well instrument and plates were incubated for 10 min at room temperature on a plate shaker (350 rpm). Then, 10 μL/well of lysate were transferred to the Alpha plates.
The CyBi@-Well instrument was used to dispense 5 μL/well of AlphaLISA Acceptor Bead Solution in IX Immunoassay buffer (Perkin Elmer AL000F). […]

T1 sequence (Q9NZC2 19-230): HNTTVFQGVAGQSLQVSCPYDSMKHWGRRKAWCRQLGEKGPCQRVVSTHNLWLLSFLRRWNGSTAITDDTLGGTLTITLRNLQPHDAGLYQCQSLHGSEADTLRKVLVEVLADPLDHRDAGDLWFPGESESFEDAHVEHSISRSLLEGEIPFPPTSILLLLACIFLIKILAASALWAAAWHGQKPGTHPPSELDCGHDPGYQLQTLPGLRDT
T1 sequence (O43914 22-113 partner): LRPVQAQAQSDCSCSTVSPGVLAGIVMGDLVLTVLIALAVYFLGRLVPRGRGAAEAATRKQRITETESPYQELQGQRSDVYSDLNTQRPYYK

Row | Emax [%] | EC50 [nM] | SMILES
1 | > 110 | 10 to 100 | Cn1c(C(F)(F)F)nc2c(-c3ccc(C#N)cc3F)nc(N3CC(Oc4cnn(CC5CC5)c4)C3)nc2c1=O [Example 15, 4-(2-(3-((1-(cyclopropylmethyl)-1H-pyrazol-4-yl)oxy)azetidin-1-yl)-7-methyl-8-oxo-6-(trifluoromethyl)-7,8-dihydropyrimido[5,4-d]pyrimidin-4-yl)-3-fluorobenzonitrile]
2 | 75 to 110 | 100 to 1000 | Cn1c(C(F)(F)F)nc2c(-c3ccc(C#N)cc3F)nc(N3CC(Oc4cnn(C5CC5)c4)C3)cc2c1=O [Example 41, 4-(6-(3-((1-cyclopropyl-1H-pyrazol-4-yl)oxy)azetidin-1-yl)-3-methyl-4-oxo-2-(trifluoromethyl)-3,4-dihydropyrido[3,4-d]pyrimidin-8-yl)-3-fluorobenzonitrile]
3 | 75 to 110 | 10 to 100 | Cn1c(C(F)(F)F)nc2c(-c3ccc(C#N)cc3F)nc(N3CC(Oc4ccnc(C(F)(F)F)c4)C3)nc2c1=O [Example 25, 3-fluoro-4-(7-methyl-8-oxo-6-(trifluoromethyl)-2-(3-((2-(trifluoromethyl)pyridin-4-yl)oxy)azetidin-1-yl)-7,8-dihydropyrimido[5,4-d]pyrimidin-4-yl)benzonitrile]
4 | < 75 | 100 to 1000 | COc1ccc(-c2nc(N3CC(Oc4cnn(C5CC5)c4)C3)nc3c(=O)n(C)c(C(F)(F)F)nc23)c(F)c1 [Example 36, 6-(3-((1-cyclopropyl-1H-pyrazol-4-yl)oxy)azetidin-1-yl)-8-(2-fluoro-4-methoxyphenyl)-3-methyl-2-(trifluoromethyl)pyrimido[5,4-d]pyrimidin-4(3H)-one]
5 | < 75 | 100 to 1000 | Cc1cncc(OC2CN(c3nc(-c4ccc(C#N)cc4F)c4nc(C(F)(F)F)n(C)c(=O)c4n3)C2)n1 [Example 6, 3-fluoro-4-(7-methyl-2-(3-((6-methylpyrazin-2-yl)oxy)azetidin-1-yl)-8-oxo-6-(trifluoromethyl)-7,8-dihydropyrimido[5,4-d]pyrimidin-4-yl)benzonitrile]
6 | 75 to 110 | 100 to 1000 | Cc1n[nH]c(C)c1OC1CN(c2nc(-c3ccc(C#N)cc3F)c3nc(C(F)(F)F)n(C)c(=O)c3n2)C1 [Example 9, 4-(2-(3-((3,5-dimethyl-1H-pyrazol-4-yl)oxy)azetidin-1-yl)-7-methyl-8-oxo-6-(trifluoromethyl)-7,8-dihydropyrimido[5,4-d]pyrimidin-4-yl)-3-fluorobenzonitrile]
7 | 75 to 110 | 100 to 1000 | CCc1nnc(OC2CN(c3nc(-c4ccc(C#N)cc4F)c4nc(C(F)(F)F)n(C)c(=O)c4n3)C2)s1 [Example 4, 4-(2-(3-((5-ethyl-1,3,4-thiadiazol-2-yl)oxy)azetidin-1-yl)-7-methyl-8-oxo-6-(trifluoromethyl)-7,8-dihydropyrimido[5,4-d]pyrimidin-4-yl)-3-fluorobenzonitrile]
8 | < 75 | 100 to 1000 | Cc1nn(C)cc1OC1CN(c2nc(-c3ccc(C#N)cc3F)c3nc(C(F)(F)F)n(C)c(=O)c3n2)C1 [Example 10, 4-(2-(3-((1,3-dimethyl-1H-pyrazol-4-yl)oxy)azetidin-1-yl)-7-methyl-8-oxo-6-(trifluoromethyl)-7,8-dihydropyrimido[5,4-d]pyrimidin-4-yl)-3-fluorobenzonitrile]
9 | 75 to 110 | 10 to 100 | Cc1cc(OC2CN(c3nc(-c4ccc(F)cc4F)c4nc(C(F)(F)F)n(C)c(=O)c4n3)C2)ccn1 [Example 30, 8-(2,4-difluorophenyl)-3-methyl-6-(3-((2-methylpyridin-4-yl)oxy)azetidin-1-yl)-2-(trifluoromethyl)pyrimido[5,4-d]pyrimidin-4(3H)-one]
10 | 75 to 110 | 10 to 100 | Cn1c(C(F)(F)F)nc2c(-c3ccc(C#N)cc3F)nc(N3CC(Oc4cnn(CC(F)(F)F)c4)C3)nc2c1=O [Example 19, 3-fluoro-4-(7-methyl-8-oxo-2-(3-((1-(2,2,2-trifluoroethyl)-1H-pyrazol-4-yl)oxy)azetidin-1-yl)-6-(trifluoromethyl)-7,8-dihydropyrimido[5,4-d]pyrimidin-4-yl)benzonitrile]
11 | 75 to 110 | < 10 | Cn1c(C(F)(F)F)nc2c(-c3ccc(C#N)cc3F)nc(N3CC(Oc4cnn(C5CC5)c4)C3)nc2c1=O [Example 1, 4-(2-(3-((1-cyclopropyl-1H-pyrazol-4-yl)oxy)azetidin-1-yl)-7-methyl-8-oxo-6-(trifluoromethyl)-7,8-dihydropyrimido[5,4-d]pyrimidin-4-yl)-3-fluorobenzonitrile]
12 | < 75 | 100 to 1000 | Cc1nnc(OC2CN(c3nc(-c4ccc(C#N)cc4F)c4nc(C(F)(F)F)n(C)c(=O)c4n3)C2)s1 [Example 3, 3-fluoro-4-(7-methyl-2-(3-((5-methyl-1,3,4-thiadiazol-2-yl)oxy)azetidin-1-yl)-8-oxo-6-(trifluoromethyl)-7,8-dihydropyrimido[5,4-d]pyrimidin-4-yl)benzonitrile]
13 | 75 to 110 | 100 to 1000 | Cn1c(C(F)(F)F)nc2c(-c3ccc(C#N)nc3)nc(N3CC(Oc4cnn(C5CC5)c4)C3)nc2c1=O [Example 38, 5-(2-(3-((1-cyclopropyl-1H-pyrazol-4-yl)oxy)azetidin-1-yl)-7-methyl-8-oxo-6-(trifluoromethyl)-7,8-dihydropyrimido[5,4-d]pyrimidin-4-yl)picolinonitrile]
14 | < 75 | 100 to 1000 | Cn1c(C(F)(F)F)nc2c(-c3ccc(C#N)cc3F)nc(N3CC(Oc4cnnc(Cl)c4)C3)nc2c1=O [Example 26, 4-(2-(3-((6-chloropyridazin-4-yl)oxy)azetidin-1-yl)-7-methyl-8-oxo-6-(trifluoromethyl)-7,8-dihydropyrimido[5,4-d]pyrimidin-4-yl)-3-fluorobenzonitrile]
15 | < 75 | 10 to 100 | Cc1cc(CC2CN(c3nc(-c4ccc(F)cc4F)c4nc(C(F)(F)F)n(C)c(=O)c4n3)C2)ccn1 [Example 34, 8-(2,4-difluorophenyl)-3-methyl-6-(3-((2-methylpyridin-4-yl)methyl)azetidin-1-yl)-2-(trifluoromethyl)pyrimido[5,4-d]pyrimidin-4(3H)-one]
16 | < 75 | 10 to 100 | Cn1c(C(F)(F)F)nc2c(-c3ccc(C#N)cc3F)nc(N3CC(Oc4cnccn4)C3)nc2c1=O [Example 5, 3-fluoro-4-(7-methyl-8-oxo-2-(3-(pyrazin-2-yloxy)azetidin-1-yl)-6-(trifluoromethyl)-7,8-dihydropyrimido[5,4-d]pyrimidin-4-yl)benzonitrile]
17 | 75 to 110 | < 10 | Cn1c(C(F)(F)F)nc2c(-c3ccc(C#N)cc3F)nc(N3CC(Oc4cnn(C5CCCC5)c4)C3)nc2c1=O [Example 18, 4-(2-(3-((1-cyclopentyl-1H-pyrazol-4-yl)oxy)azetidin-1-yl)-7-methyl-8-oxo-6-(trifluoromethyl)-7,8-dihydropyrimido[5,4-d]pyrimidin-4-yl)-3-fluorobenzonitrile]
18 | 75 to 110 | 10 to 100 | Cn1c(C(F)(F)F)nc2c(-c3ccc(C#N)cc3F)nc(N3CC(Oc4ccnc(C#N)c4)C3)nc2c1=O [Example 20, 4-((1-(4-(4-cyano-2-fluorophenyl)-7-methyl-8-oxo-6-(trifluoromethyl)-7,8-dihydropyrimido[5,4-d]pyrimidin-2-yl)azetidin-3-yl)oxy)picolinonitrile]
